In patent US12029803B2, “Personal cleansing compositions, methods and uses” (The Procter & Gamble Company, priority 2021, dated 2024):
Entries after “also recorded” stand apart in the source; their conditions may differ.

Experiment: Observations of appearance, structure and phase separation (Centrifuge Test)
Type: physicochemical
Settings: sulfate

Structure (SMILES): CCCCCCCCCCCCCOS(=O)(=O)[O-].[Na+] [non-ethoxylated sodium tridecyl sulfate, sodium tridecyl sulfate]
- lamellar phase formation of personal cleansing compositions comprising the surfactant: did not form lamellar phase; also recorded: unable to produce a stable lamellar phase
